# Assay results from patent US20170007554A1, “MEDICINE FOR PREVENTING ISCHEMIC DISEASES” (JX NIPPON OIL & ENERGY CORPORATION, priority 2014, published 2017).
# Test system: RGC-5 cells
# Experiment: Cytoprotective action under OGD stress (dead cell rate, nuclear staining)
# Format: cell-based
# Conditions: no OGD stress
# Description: The RGC-5 cell line is a cell line from rat retinal ganglion cells and used for in vitro tests for cell damage evaluation. The RGC-5 cell line can be cultured in accordance with the method disclosed in NAKAJIMA Y. et al., Zeaxanthin, a Retinal Carotenoid, Protects Retinal Cells against Oxidative Stress, Current Eye Research, 2009, Vol. 34, pp. 311-318.
# Here, the expression OGD stress refers to a state in which the supply of oxygen and glucose is restricted.
# RGC-5 cells were added at a concentration of 1×10^3 cells/well to a DMEM medium containing glucose […] that was concentrated at 4.5 times the general concentration and fetal bovine serum (FBS: 10%) of Oseanian origin that was concentrated at 10 times the general concentration, followed by culture for 24 hours. […]
# Then, the mixture was washed twice with FBS-free base medium, followed by culture in DMEM medium containing high-concentration glucose […] and general-concentration FBS (1%) for 18 hours. The dead cell rate and the state of reactive oxygen species (ROS) generation were determined via nuclear staining. […] Meanwhile, the state of reactive oxygen species (ROS) generation was determined in accordance with the method disclosed in NAKAJIMA Y. et al., Zeaxanthin, a Retinal Carotenoid, Protects Retinal Cells against Oxidative Stress, Current Eye Research, 2009, Vol. 34, pp. 311-318. […]
structure (smiles),measurement,value
CC1=NN(c2ccccc2)C(=O)C1 [Edaravone],cell death in the absence of OGD stress,did not cause cell death
